{
  "source": "ChEMBL document CHEMBL3044763",
  "about": "“Inhibitory Activities of Rhodanine Derivatives on Plant Growth” (Biosci Biotechnol Biochem, 1996)",
  "key": {"[1]": {"test_system": "Brassica rapa subsp. oleifera", "assay": "Growth inhibition of Brassica rapa subsp. oleifera assessed as total chlorophyll level at 5 x 10^-5 M after 7 days", "assay_type": "functional", "set-up": "scale not given: the % may be the effect or the level left"}, "[2]": {"test_system": "Brassica rapa subsp. oleifera", "assay": "Growth inhibition of Brassica rapa subsp. oleifera assessed as root growth at 3 x 10^-4 M after 7 days", "assay_type": "functional"}, "[3]": {"test_system": "Brassica rapa subsp. oleifera", "assay": "Growth inhibition of Brassica rapa subsp. oleifera assessed as chlorophyll b level at 3 x 10^-5 M after 7 days", "assay_type": "functional", "set-up": "scale not given: the % may be the effect or the level left"}, "[4]": {"test_system": "Brassica rapa subsp. oleifera", "assay": "Growth inhibition of Brassica rapa subsp. oleifera assessed as root growth at 3 x 10^-5 M after 7 days", "assay_type": "functional"}, "[5]": {"assay": "Toxicity in ip dosed Mus musculus ddY (mouse) assessed as mortality after 1 to 7 days", "assay_type": "organism-based", "conditions": "in vivo"}, "[6]": {"test_system": "Brassica rapa subsp. oleifera", "assay": "Growth inhibition of Brassica rapa subsp. oleifera assessed as chlorophyll a level at 3 x 10^-4 M after 7 days", "assay_type": "functional", "set-up": "scale not given: the % may be the effect or the level left"}, "[7]": {"test_system": "Brassica rapa subsp. oleifera", "assay": "Growth inhibition of Brassica rapa subsp. oleifera assessed as total chlorophyll level at 1 x 10^-4 M after 7 days", "assay_type": "functional", "set-up": "scale not given: the % may be the effect or the level left"}, "[8]": {"test_system": "Brassica rapa subsp. oleifera", "assay": "Growth inhibition of Brassica rapa subsp. oleifera assessed as chlorophyll a level at 3 x 10^-5 M after 7 days", "assay_type": "functional", "set-up": "scale not given: the % may be the effect or the level left"}, "[9]": {"test_system": "Brassica rapa subsp. oleifera", "assay": "Growth inhibition of Brassica rapa subsp. oleifera assessed as root growth at 5 x 10^-5 M after 7 days", "assay_type": "functional"}, "[10]": {"test_system": "Brassica rapa subsp. oleifera", "assay": "Growth inhibition of Brassica rapa subsp. oleifera assessed as total chlorophyll level at 3 x 10^-4 M after 7 days", "assay_type": "functional", "set-up": "scale not given: the % may be the effect or the level left"}, "[11]": {"test_system": "Brassica rapa subsp. oleifera", "assay": "Growth inhibition of Brassica rapa subsp. oleifera assessed as root growth at 1 x 10^-4 M after 7 days", "assay_type": "functional"}, "[12]": {"test_system": "Brassica rapa subsp. oleifera", "assay": "Growth inhibition of Brassica rapa subsp. oleifera assessed as chlorophyll b level at 5 x 10^-5 M after 7 days", "assay_type": "functional", "set-up": "scale not given: the % may be the effect or the level left"}, "[13]": {"test_system": "Brassica rapa subsp. oleifera", "assay": "Growth inhibition of Brassica rapa subsp. oleifera assessed as chlorophyll b level at 3 x 10^-4 M after 7 days", "assay_type": "functional", "set-up": "scale not given: the % may be the effect or the level left"}, "[14]": {"test_system": "Brassica rapa subsp. oleifera", "assay": "Growth inhibition of Brassica rapa subsp. oleifera assessed as total chlorophyll level at 3 x 10^-5 M after 7 days", "assay_type": "functional", "set-up": "scale not given: the % may be the effect or the level left"}, "[15]": {"test_system": "Brassica rapa subsp. oleifera", "assay": "Growth inhibition of Brassica rapa subsp. oleifera assessed as chlorophyll a level at 5 x 10^-5 M after 7 days", "assay_type": "functional", "set-up": "scale not given: the % may be the effect or the level left"}, "[16]": {"test_system": "Brassica rapa subsp. oleifera", "assay": "Growth inhibition of Brassica rapa subsp. oleifera assessed as chlorophyll a level at 1 x 10^-4 M after 7 days", "assay_type": "functional", "set-up": "scale not given: the % may be the effect or the level left"}, "[17]": {"test_system": "Brassica rapa subsp. oleifera", "assay": "Growth inhibition of Brassica rapa subsp. oleifera assessed as chlorophyll b level at 1 x 10^-4 M after 7 days", "assay_type": "functional", "set-up": "scale not given: the % may be the effect or the level left"}},
  "data": [
    {"smiles": "O=C(NN1C(=O)CSC1=S)c1ccccc1", "note": "[N-BENZOYLAMINORHODANINE]", "values": [
      {"measurement": "Activity", "setting": "[1]", "value": 19.54, "unit": "%"},
      {"measurement": "Activity", "setting": "[2]", "value": 19.2, "unit": "mm"},
      {"measurement": "Activity", "setting": "[3]", "value": 6.82, "unit": "%"},
      {"measurement": "Root length", "setting": "[4]", "value": 79.6, "unit": "mm"},
      {"measurement": "LD50", "setting": "[5]", "value": "> 1000", "unit": "mg/kg"},
      {"measurement": "Activity", "setting": "[6]", "value": 6.53, "unit": "%"},
      {"measurement": "Activity", "setting": "[7]", "value": 17.6, "unit": "%"},
      {"measurement": "Activity", "setting": "[8]", "value": 14.44, "unit": "%"},
      {"measurement": "Root length", "setting": "[9]", "value": 73.3, "unit": "mm"},
      {"measurement": "Activity", "setting": "[10]", "value": 9.62, "unit": "%"},
      {"measurement": "Activity", "setting": "[11]", "value": 33.8, "unit": "mm"},
      {"measurement": "Activity", "setting": "[12]", "value": 6.12, "unit": "%"},
      {"measurement": "Activity", "setting": "[13]", "value": 3.1, "unit": "%"},
      {"measurement": "Activity", "setting": "[14]", "value": 21.24, "unit": "%"},
      {"measurement": "Activity", "setting": "[15]", "value": 13.43, "unit": "%"},
      {"measurement": "Activity", "setting": "[16]", "value": 11.46, "unit": "%"},
      {"measurement": "Activity", "setting": "[17]", "value": 6.15, "unit": "%"}
    ]}
  ]
}
